Experimental data published in US20200316113A1, “USE OF COMPOSITION COMPRISING FERROUS AMINO ACID CHELATE IN MANUFACTURE OF MEDICAMENT FOR INHIBITING ANGIOGENESIS” (PROFEAT BIOTECHNOLOGY CO., LTD., priority 2017, published 2020).

System: human umbilical vein endothelial cells (HUVECs)
Experiment: MTT assay, effect of VEGF and Composition A1 on cell proliferation
Type: cell-based
Conditions: 0, 24, 48 and 72 hours, control group as basis
Procedure: Recombinant human vascular endothelial growth factor (VEGF) was purchased from R&D systems; Cat No. 293-VE. The HUVECs were used in the experiments. The cells were seeded in a 24-well plate at a density of 2×10^4 cells/well. The experiments include control group (not treated with VEGF) and the groups respectively treated with 1 ng/mL VEGF, 5 ng/mL VEGF, 10 ng/mL VEGF and 20 ng/mL VEGF for 0 hour, 24 hours, 48 hours and 72 hours. Each group was triplicated. The MTT assays were performed and values of OD 565 were measured in order to observe the effect of VEGF on cell growth.

## VEGF
1 ng/mL VEGF
  cell number / cell proliferation of HUVEC (OD 565, MTT): not significant
5 ng/mL VEGF
  cell number / cell proliferation of HUVEC (OD 565, MTT): not significant
10 ng/mL VEGF
  cell number / cell proliferation of HUVEC (OD 565, MTT): increased
20 ng/mL VEGF
  cell number / cell proliferation of HUVEC (OD 565, MTT): increased
